Test results published in patent US20110230476A1, “PI3 KINASE INHIBITORS AND USES THEREOF” (AVILA THERAPEUTICS, INC., priority 2009, published 2011).

What was measured:
[1] = tested on: Phospho-Akt(Ser473); assay: Dose response in SKOV3 cells as determined by in-cell Western; format: cell-based; conditions: Homo sapiens, SK-OV-3; SKOV3 cells, 1 hr; read-out: pAKT Inhibition in cell Western
Method: Dose Response in SKOV3 Cells as Determined by in-Cell Western
Twenty four hours later the media was removed and replaced with 100 ul media containing test compound or control compound and cells were returned to the incubator for 1 hr. At the end of the hour, the media was removed and the cells were washed once with PBS, then fixed for 20 minutes at room temperature in 4% formaldehyde in PBS. The formaldehyde was removed and cells were washed 5 times for 5 minutes with 100 ul of Permeabilization Buffer (PBS+0.1% Triton X-100) at room temperature with gentle shaking. The last wash was removed and replaced with 150 ul of Odyssey Blocking Buffer (Li-Cor, Lincoln, Nebr.) and incubated for 90 minutes at room temperature with gentle shaking.
The Blocking Buffer was then replaced with 50 ul of primary antibody mix (rabbit anti-Phospho-Akt(Ser473) at 1:100 (Cell Signaling Technology, Boston, Mass.) and mouse anti-tubulin at 1:5000 (Sigma Aldrich, St. Louis, Mo.) diluted in Odyssey Blocking Buffer) and incubated overnight at room temperature with gentle shaking.
The next morning, the antibody mix was removed and the wells were washed 5 times for 5 minutes with PBS+0.1% Tween-20. The last wash was replaced with 50 ul of secondary antibody mix (goat anti-rabbit-IRDye-680 and goat anti-mouse-IRDye-800 (Li-Cor), both diluted 1:1000 in Odyssey Blocking Buffer+0.2% Tween-20) and incubated for 1 hour at room temperature with gentle shaking. The antibody mix was removed and the wells were washed 5 times for 5 minutes in PBS+0.1% Tween-20, then 1 time with ddH2O.
The plates were scanned on an Odyssey machine (Li-Cor) with a 3 mm focus offset at an intensity of 8 in both channels and the data was analyzed using the Odyssey software.

[2] = molecular target: T1, PI3Kα (p110α/p85α) (Homo sapiens, UniProt P42336); assay: HTRF assay, potency against active PI3Kα; format: biochemical; conditions: HTRF; [ATP]=50 μM, [di-C8-PIP2]=10 μM; 30 min pre-incubation; read-out: PI3Kα Inhibition
T1 construct: purchased BPS Bioscience (San Diego, Calif.) or Millipore (Billerica, Mass.)
Method in brief: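 IC50 came from a variable-slope fit of % inhibition, calculated from the HTRF emission ratio relative to wells with and without enzyme. Reactions with the active enzyme complex ran 30-60 minutes at 25 °C after ATP addition before stop and detection reagents.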

T1 sequence (P42336 whole entry): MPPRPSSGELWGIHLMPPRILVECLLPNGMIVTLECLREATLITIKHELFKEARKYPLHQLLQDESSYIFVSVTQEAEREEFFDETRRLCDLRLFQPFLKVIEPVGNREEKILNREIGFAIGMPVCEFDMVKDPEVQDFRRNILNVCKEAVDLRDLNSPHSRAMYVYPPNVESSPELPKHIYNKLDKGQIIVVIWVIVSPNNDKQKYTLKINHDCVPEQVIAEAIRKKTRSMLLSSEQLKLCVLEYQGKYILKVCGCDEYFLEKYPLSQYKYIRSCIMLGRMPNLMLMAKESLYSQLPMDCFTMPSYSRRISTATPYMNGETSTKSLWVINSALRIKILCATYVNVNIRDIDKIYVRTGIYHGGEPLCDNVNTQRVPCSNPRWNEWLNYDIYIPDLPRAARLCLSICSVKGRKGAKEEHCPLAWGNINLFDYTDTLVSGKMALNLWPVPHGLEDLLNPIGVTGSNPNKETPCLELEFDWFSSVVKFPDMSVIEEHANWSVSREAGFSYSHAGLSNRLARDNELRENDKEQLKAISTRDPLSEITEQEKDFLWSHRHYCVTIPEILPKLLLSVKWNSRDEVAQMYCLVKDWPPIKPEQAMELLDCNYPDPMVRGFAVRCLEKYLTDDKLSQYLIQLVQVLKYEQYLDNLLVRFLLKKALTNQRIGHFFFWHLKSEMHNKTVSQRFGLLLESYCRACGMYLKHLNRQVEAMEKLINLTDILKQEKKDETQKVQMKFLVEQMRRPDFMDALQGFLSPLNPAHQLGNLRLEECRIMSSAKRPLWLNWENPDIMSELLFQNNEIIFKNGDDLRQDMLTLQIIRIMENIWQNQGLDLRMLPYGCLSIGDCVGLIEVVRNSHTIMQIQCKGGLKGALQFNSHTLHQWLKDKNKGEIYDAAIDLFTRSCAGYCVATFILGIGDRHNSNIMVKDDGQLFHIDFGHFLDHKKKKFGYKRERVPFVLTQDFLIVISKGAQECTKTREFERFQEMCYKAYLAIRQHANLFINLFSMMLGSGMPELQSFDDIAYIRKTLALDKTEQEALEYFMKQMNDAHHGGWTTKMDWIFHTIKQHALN
T1 sequence (P27986 whole entry partner): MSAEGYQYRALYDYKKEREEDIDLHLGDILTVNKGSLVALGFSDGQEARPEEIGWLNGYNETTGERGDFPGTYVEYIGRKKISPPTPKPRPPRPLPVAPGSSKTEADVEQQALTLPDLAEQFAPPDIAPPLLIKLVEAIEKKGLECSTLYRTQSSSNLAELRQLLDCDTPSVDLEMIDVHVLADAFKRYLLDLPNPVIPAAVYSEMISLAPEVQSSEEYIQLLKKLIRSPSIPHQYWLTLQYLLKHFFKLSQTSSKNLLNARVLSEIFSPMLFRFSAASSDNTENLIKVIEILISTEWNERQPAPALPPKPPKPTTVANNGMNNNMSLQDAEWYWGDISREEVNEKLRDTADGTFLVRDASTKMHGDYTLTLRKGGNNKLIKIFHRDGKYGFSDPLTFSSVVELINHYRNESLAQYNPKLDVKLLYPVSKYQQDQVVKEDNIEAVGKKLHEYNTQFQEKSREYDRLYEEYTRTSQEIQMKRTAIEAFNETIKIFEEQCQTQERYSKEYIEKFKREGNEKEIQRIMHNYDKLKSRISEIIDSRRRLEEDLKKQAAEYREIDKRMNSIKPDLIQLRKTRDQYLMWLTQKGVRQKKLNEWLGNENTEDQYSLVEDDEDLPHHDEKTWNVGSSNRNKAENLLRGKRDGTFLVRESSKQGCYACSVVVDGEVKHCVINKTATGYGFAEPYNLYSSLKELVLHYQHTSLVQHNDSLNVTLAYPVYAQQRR

| Compound | EC50 [1] | IC50 [2] |
| --- | --- | --- |
| COc1c(OCCOCCNS(C)(=O)=O)ccc2c1N=C(NC(=O)c1cccnc1)N1CCN=C21 [IX-ref] | 10 to 100 nM | – |
| COc1ccc(-c2nn(C3CCN(C(=O)CCC(=O)/C=C/c4ccccc4)CC3)c3ncnc(N)c23)cc1OC [XI-3, (E)-1-(4-(4-amino-3-(3,4-dimethoxyphenyl)-1H-pyrazolo[3,4-d]pyrimidin-1-yl)piperidin-1-yl)-6-phenylhex-5-ene-1,4-dione] | ≥ 1000 nM | 100 to 1000 nM |
| C=CC(=O)Nc1ccc(C(=O)N2CCN(Cc3cc4nc(-c5cccc6[nH]ncc56)nc(N5CCOCC5)c4s3)CC2)cc1 [II-a-117, N-(4-(4-((2-(1H-indazol-4-yl)-4-morpholinothieno[3,2-d]pyrimidin-6-yl)methyl)piperazine-1-carbonyl)phenyl)acrylamide] | 10 to 100 nM | 100 to 1000 nM |
| CC(C)=CC(=O)CCC(=O)NCc1ccc(-c2cc3nc(-c4cccc(O)c4)nc(N4CCOCC4)c3s2)cc1 [II-a-122, N-(4-(2-(3-hydroxyphenyl)-4-morpholinothieno[3,2-d]pyrimidin-6-yl)benzyl)-6-methyl-4-oxohept-5-enamide] | 100 to 1000 nM | 10 to 100 nM |
| O=C(/C=C/c1ccccc1)CCCC(=O)N1CC=C(c2cc3nc(-c4cccc5[nH]ncc45)nc(N4CCOCC4)c3s2)CC1 [II-a-137, (E)-1-(4-(2-(1H-indazol-4-yl)-4-morpholinothieno[3,2-d]pyrimidin-6-yl)-5,6-dihydropyridin-1(2H)-yl)-7-phenylhept-6-ene-1,5-dione] | 10 to 100 nM | 10 to 100 nM |
| O=C(/C=C/c1ccncc1)CCC(=O)N1CCN(Cc2cc3nc(-c4cccc5[nH]ncc45)nc(N4CCOCC4)c3s2)CC1 [II-a-141, (E)-1-(4-((2-(1H-indazol-4-yl)-4-morpholinothieno[3,2-d]pyrimidin-6-yl)methyl)piperazin-1-yl)-6-(pyridin-4-yl)hex-5-ene-1,4-dione] | 100 to 1000 nM | 10 to 100 nM |
| C=CC(=O)Nc1ccc(C(=O)N(C)Cc2cc3nc(-c4cnc(N)nc4)nc(N4CCOCC4)c3s2)cc1 [II-a-175, 4-acrylamido-N-((2-(2-aminopyrimidin-5-yl)-4-morpholinothieno[3,2-d]pyrimidin-6-yl)methyl)-N-methylbenzamide] | ≤ 10 nM | 10 to 100 nM |
| O=C(/C=C/c1ccccc1F)CCC(=O)N1CCN(Cc2cc3nc(-c4cccc5[nH]ncc45)nc(N4CCOCC4)c3s2)CC1 [II-a-140, (E)-1-(4-((2-(1H-indazol-4-yl)-4-morpholinothieno[3,2-d]pyrimidin-6-yl)methyl)piperazin-1-yl)-6-(2-fluorophenyl)hex-5-ene-1,4-dione] | 100 to 1000 nM | 10 to 100 nM |
| C/C=C/C(=O)CCC(=O)NCc1ccc(-c2cc3nc(-c4cccc5[nH]ncc45)nc(N4CCOCC4)c3s2)cc1 [II-a-115, (E)-N-(4-(2-(1H-indazol-4-yl)-4-morpholinothieno[3,2-d]pyrimidin-6-yl)benzyl)-4-oxohept-5-enamide] | 100 to 1000 nM | 10 to 100 nM |
| O=C(/C=C/c1ccccn1)CCC(=O)N1CCN(Cc2cc3nc(-c4cccc5[nH]ncc45)nc(N4CCOCC4)c3s2)CC1 [II-a-133, (E)-1-(4-((2-(1H-indazol-4-yl)-4-morpholinothieno[3,2-d]pyrimidin-6-yl)methyl)piperazin-1-yl)-6-(pyridin-2-yl)hex-5-ene-1,4-dione] | 10 to 100 nM | 100 to 1000 nM |
| C=CC(=O)Nc1ccc(CCNC(=O)c2cc3nc(-c4cnc(N)nc4)cc(N4CCOCC4)c3s2)cc1 [II-g-1, N-(4-acrylamidophenethyl)-5-(2-aminopyrimidin-5-yl)-7-morpholinothieno[3,2-b]pyridine-2-carboxamide] | 10 to 100 nM | 100 to 1000 nM |
| C=CC(=O)Nc1ccc(N2CCN(C(=O)c3cc4nc(-c5cccc(O)c5)nc(N5CCOCC5)c4s3)CC2)cc1 [II-a-127, N-(4-(4-(2-(3-hydroxyphenyl)-4-morpholinothieno[3,2-d]pyrimidine-6-carbonyl)piperazin-1-yl)phenyl)acrylamide] | ≤ 10 nM | 100 to 1000 nM |
| COc1ncc(-c2ccc3nccc(-c4ccncc4)c3c2)cc1NS(=O)(=O)c1ccc(F)cc1F [X-ref] | ≤ 10 nM | – |
| Cn1cncc1/C=C/C(=O)CCC(=O)N1CCN(Cc2cc3nc(-c4cccc5[nH]ncc45)nc(N4CCOCC4)c3s2)CC1 [II-a-130, (E)-1-(4-((2-(1H-indazol-4-yl)-4-morpholinothieno[3,2-d]pyrimidin-6-yl)methyl)piperazin-1-yl)-6-(1-methyl-1H-imidazol-5-yl)hex-5-ene-1,4-dione] | 10 to 100 nM | 100 to 1000 nM |
| CC(C)=CC(=O)CCCC(=O)N(C)Cc1cc2nc(-c3cnc(N)nc3)nc(N3CCOCC3)c2s1 [II-a-174, N-((2-(2-aminopyrimidin-5-yl)-4-morpholinothieno[3,2-d]pyrimidin-6-yl)methyl)-N,7-dimethyl-5-oxooct-6-enamide] | ≤ 10 nM | 10 to 100 nM |
| C/C=C/C(=O)CCC(=O)N1CCC(O)(CCc2cc3nc(-c4cccc(O)c4)nc(N4CCOCC4)c3s2)CC1 [II-a-123, (E)-1-(4-hydroxy-4-(2-(2-(3-hydroxyphenyl)-4-morpholinothieno[3,2-d]pyrimidin-6-yl)ethyl)piperidin-1-yl)hept-5-ene-1,4-dione] | 10 to 100 nM | < 10 nM |
| CCCC(=O)CCC(=O)N1CCN(Cc2cc3nc(-c4cccc5[nH]ncc45)nc(N4CCOCC4)c3s2)CC1 [II^R-a-36, 1-(4-((2-(1H-indazol-4-yl)-4-morpholinothieno[3,2-d]pyrimidin-6-yl)methyl)piperazin-1-yl)heptane-1,4-dione] | 100 to 1000 nM | > 1000 nM |
| CNC(=O)Nc1ccc(-c2nc(N3CCOCC3)c3cnn(C4CCN(C(=O)OC)CC4)c3n2)cc1 [VII-ref] | 10 to 100 nM | – |
| Nc1ncnc2c1c(-c1cnc3[nH]ccc3c1)nn2C1CCCC1 [XI-ref] | 10 to 100 nM | – |

Continued, values first:

| EC50 [1] | IC50 [2] | Compound |
| --- | --- | --- |
| 100 to 1000 nM | 100 to 1000 nM | C=CC(=O)Nc1cccc(N2CC=C(c3cc(-c4cnc(N)nc4)nc(N4CCOCC4)c3)CC2)c1 [XII-48] |
| 100 to 1000 nM | > 1000 nM | CC(C)=CC(=O)CCCC(=O)N1CCC2(CC1)CN(c1cc(-c3cnc(N)nc3)nc(N3CCOCC3)c1)C2 [XII-41, 1-(2-(2-(2-aminopyrimidin-5-yl)-6-morpholinopyridin-4-yl)-2,7-diazaspiro[3.5]nonan-7-yl)-7-methyloct-6-ene-1,5-dione] |
| 100 to 1000 nM | 100 to 1000 nM | C=CC(=O)Nc1cccc(C(=O)N2CC=C(c3cc(-c4cnc(N)nc4)nc(N4CCOCC4)c3)CC2)c1 [XII-47, N-(3-(4-(2-(2-aminopyrimidin-5-yl)-6-morpholinopyridin-4-yl)-1,2,3,6-tetrahydropyridine-1-carbonyl)phenyl)acrylamide] |
| 100 to 1000 nM | 100 to 1000 nM | C=CC(=O)Nc1ccc(C(=O)N2CC=C(c3cc(-c4cnc(N)nc4)nc(N4CCOCC4)c3)CC2)cc1 [XII-46, N-(4-(4-(2-(2-aminopyrimidin-5-yl)-6-morpholinopyridin-4-yl)-1,2,3,6-tetrahydropyridine-1-carbonyl)phenyl)acrylamide] |
| 100 to 1000 nM | 100 to 1000 nM | C/C=C/C(=O)CCC(=O)N1CCC(n2ncc3c(N4CCOCC4)nc(-c4ccc(NC(=O)NC)cc4)nc32)CC1 [VII-7, (E)-1-methyl-3-(4-(4-morpholino-1-(1-(4-oxohept-5-enoyl)piperidin-4-yl)-1H-pyrazolo[3,4-d]pyrimidin-6-yl)phenyl)urea] |
| 10 to 100 nM | 100 to 1000 nM | C=CC(=O)Nc1ccc(C(=O)N2CCC(n3ncc4c(N5CCOCC5)nc(-c5cnc(N)nc5)nc43)CC2)cc1 [VII-12, N-(4-(4-(6-(2-aminopyrimidin-5-yl)-4-morpholino-1H-pyrazolo[3,4-d]pyrimidin-1-yl)piperidine-1-carbonyl)phenyl)acrylamide] |
| 100 to 1000 nM | 10 to 100 nM | CC(C)=CC(=O)CCC(=O)N1CCC2(CC1)CN(c1cc(-c3cnc(N)nc3)nc(N3CCOCC3)c1)C2 [XII-39, 1-(2-(2-(2-aminopyrimidin-5-yl)-6-morpholinopyridin-4-yl)-2,7-diazaspiro[3.5]nonan-7-yl)-6-methylhept-5-ene-1,4-dione] |
| 100 to 1000 nM | 10 to 100 nM | C=C(C)C(=O)c1ccc(C(=O)N2CC=C(c3cc(-c4cnc(N)nc4)nc(N4CCOCC4)c3)CC2)cc1 [XII-49, 1-(4-(4-(2-(2-aminopyrimidin-5-yl)-6-morpholinopyridin-4-yl)-1,2,3,6-tetrahydropyridine-1-carbonyl)phenyl)-2-methylprop-2-en-1-one] |
